{
  "source": "patent US20260306491A1",
  "about": "“EGFR INHIBITOR FOR TREATING CANCERS COMPRISING ATYPICAL EGFR MUTATIONS” (ORIC Pharmaceuticals, Inc., priority 2023, published 2026)",
  "type_in_all_cases": "in vivo, human",
  "key": {"[1]": {"test_system": "HER2 exon 20 insertion mutated NSCLC", "experiment": "Clinical study: duration of treatment and antitumor response, HER2 exon 20 insertion mutated NSCLC (Example 10)", "procedure": "A clinical study was conducted using Compound I in human subjects having non-small cell lung cancer (NSCLC) comprising EGFR exon 20 insertion mutations, HER2 exon 20 insertion mutations, or HER2 amplification or overexpression. A total of 50 human subjects having non-small cell lung cancer comprising one or more EGFR exon 20 insertion mutations, HER2 exon 20 insertion mutations, or HER2 amplification or overexpression were enrolled in the study as of Jul. 31, 2023 with data collected as of Sep. 26, 2023. The subjects were enrolled into one of ten dosing cohorts that were each orally administered Compound I in the form of a hemifumarate salt as shown in Table 13 (QD=once per day; BID=twice per day).\nDuration of treatment and antitumor responses achieved in evaluable subjects with HER2 exon 20 insertion mutate NSCLC (dose level greater than or equal to 45 mg TDD and at least one post-baseline tumor assessment) who were administered Compound I in the form of a hemifumarate salt are set forth in Tables 21 and 22, respectively."}, "[2]": {"test_system": "HER2 exon 20 mutated NSCLC", "experiment": "Clinical evaluation in one subject (Example 12)", "conditions": "hemifumarate, 30 mg BID", "procedure": "A subject having HER2 exon 20 mutated NSCLC was enrolled in a clinical study relating to Compound I. The cancer in the subject had been previously treated with pemetrexed/cisplatin, ipilimumab/nivolumab/carboplatin, and pemetrexed/carboplatin/pembrolizumab. The subject was enrolled in a dosing cohort that received 30 mg BID of Compound I in the form of a hemifumarate salt."}, "[3]": {"experiment": "Phase 1 relative bioavailability of capsule and tablet in healthy subjects: safety", "procedure": "A Phase 1, open-label, single dose study was conducted in healthy human subjects to evaluate the relative bioavailability of two formulations of Compound I. The first formulation of Compound I (Treatment A) was in the form of a capsule comprising about 15 mg of Compound I in the form of a hemifumarate, while the second formulation of Compound I (Treatment B) was in the form of a tablet comprising about 10 mg of Compound I in the form of a malonate and pharmaceutically acceptable excipients. The primary objective of the study was to evaluate the relative bioavailability (BA) of Treatment A and Treatment B administered as a single oral dose under fasting conditions in healthy adult subjects. A secondary objective was to evaluate the safety and tolerability of single dose administration of Compound I Treatment B under fasting conditions. The endpoints of the study were AUC0-last, AUC0-24, AUC0-inf, AUC % extrap, Cmax, Tmax, Kel, t½, CL/F, and Vz/F for Treatment A and Treatment B. The endpoints also included Aetl-t2, Ae, CLr, Fet1-t2, and Fe from Treatment B in period 2. A secondary endpoint included treatment-emergent AEs (TEAEs), clinical laboratory tests, vital signs, and 12 lead electrocardiogram (ECGs).\nMethodology: The study was conducted as an open-label, single-dose study. Screening of subjects occurred within 28 days prior to the first dosing. The study was conducted as a randomized, 2-period, crossover study to assess the relative BA of Treatment A and Treatment B. On Day 1 of Period 1 and of Period 2, a single oral dose of Treatment A or Treatment B were administered under fasting conditions. Blood samples for PK were collected pre-dose and through 216 hours post-dose. Urine samples for PK were collected pre-dose and through 48 hours post-dose from subjects randomized to Period 2 Treatment B (tablets). There was a washout period of at least 10 days between dosing in each period. Safety was monitored throughout the study by repeated clinical and laboratory evaluations. Discontinued subjects were not replaced. All 30 enrolled subjects completed the study and were included in the PK and safety analyses.\n60 mg Compound I in the form of Treatment B (6×10 mg tablets) was administered at Hour 0 on Day 1 under fasting conditions along with approximately 240 mL of water after a 10-hour fast. The total duration of participation including the screening period for each subject was approximately 8 weeks. There were 2 periods of approximately 14 days each; washout phase was 10 days between both doses. 60 mg of Compound I in the form of Treatment A (4×15 mg capsules) was administered to subjects at Hour 0 on Day 1 under fasting conditions along with approximately 240 mL of water after a 10-hour fast.\nPlasma samples for the analysis of Compound I were collected at the following time points relative to dosing on Day 1 of each period: pre-dose and at 0.5, 1, 2, 3, 4, 5, 6, 7, 8, 10, 12, 16, 24, 36, 48, 72, 96, 120, 144, and 216 hours post-dose. Safety was evaluated by TEAEs, clinical laboratory tests, vital signs, 12 lead ECGs, and physical examinations. An analysis of variance (ANOVA) was performed on the natural log (ln)-transformed AUC0-last, AUC0-inf, and Cmax. The ANOVA model included sequence, treatment, and period as fixed effects, and subject nested within sequence as a random effect, and included calculation of least-squares means (LSMs) as well as the difference between treatment LSMs. Ratios of LSMs were calculated using the exponentiation of the difference between treatment LSMs from the analyses on the In-transformed AUC0-last, AUC0-inf, and Cmax. […] Safety was evaluated by clinical laboratory tests, physical examination, vital signs, 12 lead ECGs, and adverse events (AEs). There was no inferential statistics performed."}, "[4]": {"conditions": "60 mg single oral, healthy subjects"}, "[5]": {"conditions": "60 mg single oral, healthy subjects (30)"}, "[6]": {"conditions": "overall, 60 mg single oral, mild"}},
  "note": "Values joined by “and” are separate entries in the source; they are usually repeats but may differ in a detail not shown here. Equal entries are not always repeated.",
  "data": [
    {"smiles": "C=CC(=O)Nc1cc(Nc2cc(N3OCC[C@@H]3c3cc(F)cc(F)c3)ncn2)c(OC)cc1N1CCC(N2CCN(C3CC3)CC2)CC1", "note": "[Compound I, N-[2-[4-(4-cyclopropyl-1-piperazinyl)-1-piperidinyl]-5-[[6-[(3R)-3-(3,5-difluorophenyl)-2-isoxazolidinyl]-4-pyrimidinyl]amino]-4-methoxyphenyl]-2-propenamide]", "values": [
      {"measurement": "Duration of treatment", "setting": "[1]; oral hemifumarate, dosing cohort 30 BID, one value per subject", "result": "79 days and Ongoing (3×) and 54 days"},
      {"measurement": "Duration of treatment", "setting": "[1]; oral hemifumarate, dosing cohort 45 QD, one value per subject", "result": "Ongoing"},
      {"measurement": "Duration of treatment", "setting": "[1]; oral hemifumarate, dosing cohort 60 QD, one value per subject", "result": 28, "unit": "days"},
      {"measurement": "Duration of treatment", "setting": "[1]; oral hemifumarate, dosing cohort 75 QD, one value per subject", "result": "179 days and 47 days"},
      {"measurement": "Duration of treatment", "setting": "[1]; oral hemifumarate, dosing cohort 90 QD, one value per subject", "result": "Ongoing"},
      {"measurement": "Best percent change in the sum of target lesions from baseline", "setting": "[1]; oral hemifumarate, ≥45 mg TDD, one value per subject (subjects 1 to 13)", "result": "0% (2×) and −3% and −19% and −31% and −33% and −34% and −55% and −100% and 31% and 11% and 9% and 5%"},
      {"measurement": "Duration of treatment", "setting": "[1]; po", "result": 2, "unit": "days"},
      {"measurement": "Non-target lesions response", "setting": "[2]; after cycle 1", "result": "non-CR/non-PD"},
      {"measurement": "Reduction of all target lesions", "setting": "[2]; after cycle 1 (28 days)", "result": 100, "unit": "%"},
      {"measurement": "Tumor response", "setting": "[2]; after cycle 1, confirmed end of cycle 2", "result": "partial response"},
      {"measurement": "Duration of dosing at data cutoff", "setting": "[2]; continuing", "result": "on dosing cycle 3"},
      {"measurement": "EGFR-related adverse events", "setting": "[2]; data cutoff Sep. 26, 2023", "result": "Grade 2 rash and Grade 2 nausea"},
      {"measurement": "Reduction of all target lesions", "setting": "[2]; end of cycle 2", "result": 100, "unit": "%"},
      {"measurement": "Safety and tolerability", "setting": "[3]; 60 mg single oral (capsule or tablet), fasting, healthy subjects", "result": "generally safe and well tolerated"},
      {"measurement": "Clinical laboratory tests, vital signs, 12-lead ECG, physical examination", "setting": "[3]; [4]", "result": "no clinically significant findings or trends"},
      {"measurement": "Deaths, serious adverse events (SAEs), or TEAEs leading to discontinuation", "setting": "[3]; [4]", "result": "no deaths, serious adverse events (SAEs), or TEAEs leading to subject discontinuation"},
      {"measurement": "Severe TEAEs", "setting": "[3]; [5]", "result": "No severe TEAEs were reported"},
      {"measurement": "Subjects reporting TEAEs", "setting": "[3]; [5]", "result": 47, "unit": "%"},
      {"measurement": "Subjects reporting TEAEs, number", "setting": "[3]; [5]", "result": 14, "unit": "n"},
      {"measurement": "Subjects with TEAEs of maximum severity mild", "setting": "[3]; [5]", "result": 33, "unit": "%"},
      {"measurement": "Subjects with TEAEs of maximum severity mild, number", "setting": "[3]; [5]", "result": 10, "unit": "n"},
      {"measurement": "Subjects with TEAEs of maximum severity moderate", "setting": "[3]; [5]", "result": 13, "unit": "%"},
      {"measurement": "Subjects with TEAEs of maximum severity moderate, number", "setting": "[3]; [5]", "result": 4, "unit": "n"},
      {"measurement": "Subjects with TEAEs related to the study drug", "setting": "[3]; [5]", "result": 40, "unit": "%"},
      {"measurement": "Subjects with TEAEs related to the study drug, number", "setting": "[3]; [5]", "result": 12, "unit": "n"},
      {"measurement": "Constipation (TEAE)", "setting": "[3]; [6]", "result": 10, "unit": "%"},
      {"measurement": "Constipation (TEAE), number of subjects", "setting": "[3]; [6]", "result": 3, "unit": "n"},
      {"measurement": "Dry skin (TEAE)", "setting": "[3]; [6]", "result": 10, "unit": "%"},
      {"measurement": "Dry skin (TEAE), number of subjects", "setting": "[3]; [6]", "result": 3, "unit": "n"},
      {"measurement": "Epistaxis (TEAE)", "setting": "[3]; [6]", "result": 10, "unit": "%"},
      {"measurement": "Epistaxis (TEAE), number of subjects", "setting": "[3]; [6]", "result": 3, "unit": "n"},
      {"measurement": "Papular rash (TEAE)", "setting": "[3]; [6]", "result": 10, "unit": "%"},
      {"measurement": "Papular rash (TEAE), number of subjects", "setting": "[3]; [6]", "result": 3, "unit": "n"}
    ]}
  ]
}
